Experimental data: US8735398B2 (Bristol-Myers Squibb Company, priority 2009, dated 2014)

system: HCV 1b genotype; experiment: HCV replicon assay (HCV-neo replicon cells, wild-type); format: cell-based, Hepatitis C virus; settings: Hepatitis C virus, HCV 1b genotype replicon; class symbol; read-out: EC50 Range against HCV 1b
Procedure, shortened: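 HCV-neo replicon cells (wild-type) and replicon cells carrying NS5A resistance substitutions were treated with compounds; assay per O'Boyle et al. 2005, with luciferase-reporter read-out variants also used.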

Compound	EC50 [nM]
O=C(C(=O)N1CCC[C@H]1C(=O)Nc1ccc(-c2nc[nH]c2-c2ccc(NC(=O)[C@@H]3CCCN3C(=O)C(=O)c3ccccc3)cc2)cc1)c1ccccc1 [JG-42, (2S,2′S)-N,N′-(1H-imidazole-4,5-diyldi-4,1-phenylene)bis(1-(oxo(phenyl)acetyl)-2-pyrrolidinecarboxamide)]	< 4.57
CO[C@H](C(=O)N1CCC[C@H]1C(=O)Nc1ccc(-c2nc[nH]c2-c2ccc(NC(=O)[C@@H]3CCCN3C(=O)[C@@H](OC)c3ccccc3)cc2)cc1)c1ccccc1 [JG-45, (2S,2′S)-N,N′-(1H-imidazole-4,5-diyldi-4,1-phenylene)bis(1-((2S)-2-methoxy-2-phenylacetyl)-2-pyrrolidinecarboxamide)]	4.57 to 99
COc1cccc2c(C(=O)N3CCC[C@H]3C(=O)Nc3ccc(-c4cnc(-c5ccc(NC(=O)[C@@H]6CCCN6C(=O)c6nc(Cl)cc7c(OC)cccc67)cc5)o4)cc3)nc(Cl)cc12 [OL-52, (2S,2′S)-N,N′-(1,3-oxazole-2,5-diyldi-4,1-phenylene)bis(1-((3-chloro-5-methoxy-1-isoquinolinyl)carbonyl)-2-pyrrolidinecarboxamide)]	100 to 999
O=C(Nc1ccc(-c2cnc(-c3ccc(NC(=O)[C@@H]4CCCN4C(=O)[C@@H](O)c4ccccc4)cc3)o2)cc1)[C@@H]1CCCN1C(=O)[C@@H](O)c1ccccc1 [JG-20, (2S,2′S)-N,N′-(1,3-oxazole-2,5-diyldi-4,1-phenylene)bis(1-((2S)-2-hydroxy-2-phenylacetyl)-2-pyrrolidinecarboxamide)]	4.57 to 99
O=C(Nc1ccc(-c2nnc(-c3ccc(NC(=O)[C@@H]4CCCN4C(=O)c4cc(Cl)ccn4)cc3)o2)cc1)[C@@H]1CCCN1C(=O)c1cc(Cl)ccn1 [RK-27, (2S,2′S)-N,N′-(1,3,4-oxadiazole-2,5-diyldi-4,1-phenylene)bis(1-((4-chloro-2-pyridinyl)carbonyl)-2-pyrrolidinecarboxamide)]	100 to 999
C[C@H](NC(=O)Cc1ccccc1)C(=O)Nc1ccc(-c2nnc(-c3ccc(NC(=O)[C@H](C)NC(=O)Cc4ccccc4)cc3)o2)cc1 [RK-23, (2S,2′S)-N,N′-(1,3,4-oxadiazole-2,5-diyldi-4,1-phenylene)bis(2-((phenylacetyl)amino)propanamide)]	100 to 999
CN(C)[C@@H](C(=O)N1CCC[C@H]1C(=O)Nc1ccc(-c2ccc(-c3ccc(NC(=O)[C@@H]4CCCN4C(=O)[C@H](O)c4ccccc4)cc3)o2)cc1)c1ccccc1 [JG-66, (2S)-1-((2R)-2-(dimethylamino)-2-phenylacetyl)-N-(4-(5-(4-((((2S)-1-((2R)-2-hydroxy-2-phenylacetyl)-2-pyrrolidinyl)carbonyl)amino)phenyl)-2-furyl)phenyl)-2-pyrrolidinecarboxamide]	< 4.57
CC(=O)N1CCC[C@H]1C(=O)Nc1ccc(-c2ccc(-c3ccc(NC(=O)[C@@H]4CCCN4C(C)=O)cc3)o2)cc1 [JG-55, (2S,2′S)-N,N′-(2,5-furandiyldi-4,1-phenylene)bis(1-acetyl-2-pyrrolidinecarboxamide)]	100 to 999
CC(=O)N1CCC[C@H]1C(=O)Nc1ccc(-c2cc(-c3ccc(NC(=O)[C@@H]4CCCN4C(=O)Cc4ccccc4)cc3)n[nH]2)cc1 [OL-36, (2S)-1-acetyl-N-(4-(3-(4-((((2S)-1-(phenylacetyl)-2-pyrrolidinyl)carbonyl)amino)phenyl)-1H-pyrazol-5-yl)phenyl)-2-pyrrolidinecarboxamide]	100 to 999
O=C(Nc1ccc(-c2cnc(-c3ccc(NC(=O)[C@@H]4CCCN4C(=O)c4nc5ccccc5s4)cc3)o2)cc1)[C@@H]1CCCN1C(=O)c1nc2ccccc2s1 [JG-29, (2S,2′S)-N,N′-(1,3-oxazole-2,5-diyldi-4,1-phenylene)bis(1-(1,3-benzothiazol-2-ylcarbonyl)-2-pyrrolidinecarboxamide)]	100 to 999
O=C(Nc1ccc(-c2nnc(-c3ccc(NC(=O)[C@@H]4CCCN4C(=O)[C@@H](O)c4ccccc4)cc3)o2)cc1)[C@@H]1CCCN1C(=O)[C@@H](O)c1ccccc1 [RK-17, (2S,2′S)-N,N′-(1,3,4-oxadiazole-2,5-diyldi-4,1-phenylene)bis(1-((2S)-2-hydroxy-2-phenylacetyl)-2-pyrrolidinecarboxamide)]	100 to 999
CC(=O)N1CCC[C@H]1C(=O)Nc1ccc(-c2cc(-c3ccc(NC(=O)[C@@H]4CCCN4C(C)=O)cc3)n(C)n2)cc1 [FY-2, (2S,2′S)-N,N′-((1-methyl-1H-pyrazole-3,5-diyl)di-4,1-phenylene)bis(1-acetyl-2-pyrrolidinecarboxamide)]	1000 to 10000
CC(C)[C@H](NC(=O)Cc1ccccc1)C(=O)Nc1ccc(-c2cnc(-c3ccc(NC(=O)[C@@H](NC(=O)Cc4ccccc4)C(C)C)cc3)o2)cc1 [JG-12, (2S,2′S)-N,N′-(1,3-oxazole-2,5-diyldi-4,1-phenylene)bis(3-methyl-2-((phenylacetyl)amino)butanamide)]	4.57 to 99
CC(=O)N1CCC[C@H]1C(=O)Nc1ccc(-c2cnc(-c3ccc(NC(=O)[C@@H]4C=CCN4C(=O)c4ccno4)cc3)o2)cc1 [Example D-3, (2S)-N-[4-[5-[4-[[[(2S)-1-acetyl-2-pyrrolidinyl]carbonyl]amino]phenyl]-2-oxazolyl]phenyl]-2,5-dihydro-1-(5-isoxazolylcarbonyl)-1H-pyrrole-2-carboxamide]	1000 to 10000

same assay, conditions: Hepatitis C virus, HCV 1b genotype replicon; class symbols; read-out: EC50 Range against HCV 1b

Compound	EC50 [nM]
COc1cc(C(=O)N2CCC[C@H]2C(=O)Nc2ccc(-c3nnc(-c4ccc(NC(=O)[C@@H]5CCCN5C(=O)c5cc(Cl)nc(OC)c5)cc4)o3)cc2)cc(Cl)n1 [RK-40, (2S,2′S)-N,N′-(1,3,4-oxadiazole-2,5-diyldi-4,1-phenylene)bis(1-(2-chloro-6-methoxyisonicotinoyl)-2-pyrrolidinecarboxamide)]	1000 to 10000
CC(C)(CCl)C(=O)N1CCC[C@H]1C(=O)Nc1ccc(-c2cnc(-c3ccc(NC(=O)[C@@H]4CCCN4C(=O)C(C)(C)CCl)cc3)o2)cc1 [XY-17, (2S,2′S)-N,N′-(1,3-oxazole-2,5-diyldi-4,1-phenylene)bis(1-(3-chloro-2,2-dimethylpropanoyl)-2-pyrrolidinecarboxamide)]	100 to 999
Cn1cc(C(=O)C(=O)N2CCC[C@H]2C(=O)Nc2ccc(-c3cnc(-c4ccc(NC(=O)[C@@H]5CCCN5C(=O)C(=O)c5cn(C)c6ccccc56)cc4)o3)cc2)c2ccccc21 [JR-1, (2S,2′S)-N,N′-(2,5-oxazolediyldi-4,1-phenylene)bis[1-[2-(1-methyl-1H-indol-3-yl)-1,2-dioxoethyl]-2-pyrrolidinecarboxamide]]	100 to 999
CC(C)(C)O[C@@H]1C[C@@H](C(=O)Nc2ccc(-c3cnc(-c4ccc(NC(=O)[C@@H]5C[C@@H](OC(C)(C)C)CN5C(=O)C(C)(C)C)cc4)o3)cc2)N(C(=O)C(C)(C)C)C1 [XY-63, (2S,4R,2′S,4′R)-N,N′-(1,3-oxazole-2,5-diyldi-4,1-phenylene)bis(4-tert-butoxy-1-(2,2-dimethylpropanoyl)-2-pyrrolidinecarboxamide)]	100 to 999
Cc1noc(C)c1C(=O)N1C[C@H](OC(C)(C)C)C[C@H]1C(=O)Nc1ccc(-c2cnc(-c3ccc(NC(=O)[C@@H]4C[C@@H](OC(C)(C)C)CN4C(=O)c4c(C)noc4C)cc3)o2)cc1 [XY-72, (2S,4R,2′S,4′R)-N,N′-(1,3-oxazole-2,5-diyldi-4,1-phenylene)bis(4-tert-butoxy-1-((3,5-dimethyl-4-isoxazolyl)carbonyl)-2-pyrrolidinecarboxamide)]	100 to 999

same assay, conditions: Hepatitis C virus, HCV 1b genotype replicon; read-out: EC50 1b

Compound	EC50 [nM]
COc1cccc2c(C(=O)N3CCC[C@H]3C(=O)Nc3ccc(-c4cnc(-c5ccc(NC(=O)[C@@H]6CCCN6C(=O)c6nc(Cl)cc7c(OC)cccc67)cc5)o4)cc3)nc(Cl)cc12 [OL-52, (2S,2′S)-N,N′-(1,3-oxazole-2,5-diyldi-4,1-phenylene)bis(1-((3-chloro-5-methoxy-1-isoquinolinyl)carbonyl)-2-pyrrolidinecarboxamide)]	30
